In article PMC6690024, “Trading amino acids at the aphid–Buchnera symbiotic interface” (Proceedings of the National Academy of Sciences of the …, 2019):

How the values were obtained:
ApNEAAT1 (ACYPI008971) = target: T1, ApNEAAT1 (ACYPI008971) (Acyrthosiphon pisum, UniProt A0A8R1W427); assay: competition with radiolabelled proline uptake in Xenopus oocytes; type: cell-based; details: pH 5.5, Na+-free, room temperature, 10 mM competitor
T1 construct: cDNA in pcDNA3.1 or pCS2+, cRNA injected into Xenopus laevis oocytes; SLC36-related AAAP transporter; I161 in TM3
T1 sequence (A0A8R1W427 1-463): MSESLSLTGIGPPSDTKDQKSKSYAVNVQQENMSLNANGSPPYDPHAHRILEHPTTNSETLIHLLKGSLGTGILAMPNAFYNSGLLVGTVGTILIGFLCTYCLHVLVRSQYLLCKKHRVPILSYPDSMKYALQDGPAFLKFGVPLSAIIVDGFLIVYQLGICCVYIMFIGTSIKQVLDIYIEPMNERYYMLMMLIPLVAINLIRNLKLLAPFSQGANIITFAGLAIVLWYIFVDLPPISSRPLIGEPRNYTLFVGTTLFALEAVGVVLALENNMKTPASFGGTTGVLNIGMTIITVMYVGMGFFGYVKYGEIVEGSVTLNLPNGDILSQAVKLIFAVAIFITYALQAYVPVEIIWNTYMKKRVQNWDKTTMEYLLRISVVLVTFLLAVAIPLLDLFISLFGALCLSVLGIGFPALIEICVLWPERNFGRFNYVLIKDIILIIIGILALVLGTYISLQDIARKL

PAT2 (rat slc36a2) [1] = target: T2, PAT2 (rat slc36a2) (Rattus norvegicus, UniProt Q8K415); assay: trans-stimulation of [3H]proline efflux from Xenopus oocytes; type: cell-based; parameters: wild type in pSPORT, cRNA injected into Xenopus laevis oocytes; details: 10 mM extracellular alanine, Na+-free, pH 5.5, 10 min
T2 sequence (Q8K415 whole entry): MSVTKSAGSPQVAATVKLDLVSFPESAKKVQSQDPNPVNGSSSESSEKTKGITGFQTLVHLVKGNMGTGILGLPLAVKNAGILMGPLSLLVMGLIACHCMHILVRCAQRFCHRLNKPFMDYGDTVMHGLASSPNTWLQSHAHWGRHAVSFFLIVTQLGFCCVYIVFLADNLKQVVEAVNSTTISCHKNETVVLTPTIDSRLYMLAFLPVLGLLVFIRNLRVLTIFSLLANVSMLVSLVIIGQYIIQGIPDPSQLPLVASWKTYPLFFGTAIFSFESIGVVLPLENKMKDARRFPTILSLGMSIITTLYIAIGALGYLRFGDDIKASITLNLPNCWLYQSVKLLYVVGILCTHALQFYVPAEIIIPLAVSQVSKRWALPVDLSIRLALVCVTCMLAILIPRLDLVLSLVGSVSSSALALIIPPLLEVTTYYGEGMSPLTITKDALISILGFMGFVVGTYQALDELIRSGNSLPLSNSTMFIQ

PAT2 (rat slc36a2) [2] = target: T2, PAT2 (rat slc36a2); details: 0.1 to 1 mM proline, Na+-free, pH 5.5, -30 mV; H+ symport
[3] = substrate: O=C(O)[C@@H]1CCCN1; assay: cells, lysate or membranes; details: pH 5.5, Na+-free, room temperature, 40 min, labelled compound
[4] = also direct uptake at 10 µM (Figure 4A)

## C[C@H](N)C(=O)O [Ala, alanine]
ApNEAAT1 (ACYPI008971); [4]
  % control proline uptake at 10 mM: smaller dipolar L- and D-amino acids (including proline, alanine, serine, cysteine, and glycine)
PAT2 (rat slc36a2) [1]
  trans-stimulation of [3H]proline efflux from Xenopus oocytes: In PAT2-expressing oocytes, alanine trans-stimulation of [3H]proline efflux was evident

## N[C@@H](CS)C(=O)O [Cys, cysteine]
ApNEAAT1 (ACYPI008971); also trans-stimulates [3H]proline efflux (Figure 4D)
  % control proline uptake at 10 mM: Cysteine is thus demonstrated to be an ApNEAAT1 substrate by its ability to trans-stimulate

## O=C(O)[C@H]1CCCN1 [D-proline]
ApNEAAT1 (ACYPI008971)
  % control proline uptake at 10 mM: small NEAAs (such as glycine and L- and D-proline, serine, alanine, and cysteine)

## O=C(O)[C@@H]1CCCN1 [Pro, proline]
PAT2 (rat slc36a2) [2]
  two-electrode voltage clamp of Xenopus oocytes, proline-induced inward current: Proline-associated inward current in PAT2-expressing but not ApNEAAT1-expressing or uninjected (control) oocytes

## N[C@@H](CO)C(=O)O [Ser, serine]
ApNEAAT1 (ACYPI008971); [4]
  % control proline uptake at 10 mM: smaller dipolar L- and D-amino acids (including proline, alanine, serine, cysteine, and glycine)

## C[C@@H](O)[C@H](N)C(=O)O [Thr, threonine]
ApNEAAT1 (ACYPI008971); weak
  % control proline uptake at 10 mM: weaker interactions with amino acids of slightly larger side-chain (e.g., threonine)

B1: ApNEAAT1 (ACYPI008971) (Acyrthosiphon pisum) (protein)
chain: T1 sequence (A0A8R1W427 1-463)
[3]
  Km: 179 ± 33 µM
